Target: recombinant DYRK1A kinase (Homo sapiens (Human), UniProt Q13627)
Test: DYRK1A kinase assay (Ser/Thr 18 peptide Z-lyte FRET assay)
Assay type: biochemical
Conditions: recombinant DYRK1A 0.25 µg/mL, ATP 15 µM, Ser/Thr peptide 18 4 µM, one hour at room temperature; table head prints EC50, method says IC50
Experimental: Representative compounds were screened using the assay procedure for DYRK1A kinase activity as described below.
Each compound was dissolved in DMSO as a 10 mM stock and used to prepare compound source plates. Serial dilution (1:3, 11-point dose-response curves from 10 µM to 0.00016 µM) and compound transfer was performed using the ECHO 550 (Labcyte, Sunnyvale, CA) into 1536-well black-walled round bottom plates (Corning).
The DYRK1A kinase assay was run using the Ser/Thr 18 peptide Z-lyte assay kit according to manufacturer’s instructions (Life Technologies- a Division of Thermo-Fisher). This is a non-radioactive assay using fluorescence resonance energy transfer (FRET) between coumarin and fluorescein to detect kinase activity which is represented as a ratio of coumarin emission/fluorescein emission.
Briefly, recombinant DYRK1A kinase, ATP and Ser/Thr peptide 18 were prepared in 1X Kinase buffer to final concentrations of 0.25 µg/mL, 15 µM, and 4 µM respectively. The mixture was allowed to incubate with the representative compounds for one hour at room temperature. All reactions were performed in duplicate. Unphosphorylated (“0% Control”) and phosphorylated (“100% control”) forms of Ser/Thr 18 served as control reactions. Additionally, an 11-point dose-response curve of Staurosporine (1uM top) was run to serve as a positive compound control.
After incubation, Development Reagent A was diluted in Development Buffer then added to the reaction and allowed to further incubate for one hour at room temperature. The plate was read at Ex 400 Em 455 to detect the coumarin signal and Ex 400 Em 520 to measure the signal (EnVision Multilabel Plate Reader, PerkinElmer).
The Emission ratio (Em) was calculated as a ratio of the coumarin (C) emission signal (at 445 nm)/Fluorescein (F) emission signal (at 520 nm). The percent phosphorylation was then calculated using the following formula: [1 — ((Em ratio X F100%)—C100%)/ ((C0%—C100%) + (Em ratio X (F100% - F0%)))]. Dose-response curves were generated, and inhibitory concentration (IC50) values were calculated using non-linear regression curve fit in the Dotmatics’ Studies Software (Bishops Stortford, UK).

EC50	Structure (SMILES)
3 nM	Cc1nc2ccc(-c3ccn4nc(N[C@H]5CC[C@@](C)(O)CC5)ncc34)nc2n1CC(F)F [Compound 1110, (1s,4s)-4-((5-(3-(2,2-Difluoroethyl)-2-methyl-3H-imidazo[4,5-b]pyridin-5-yl)pyrrolo[2,1-f][1,2,4]triazin-2-yl)amino)-1-methylcyclohexan-1-ol]
7 nM	Cc1nc2ccc(-c3ccn4nc(N[C@H]5CC[C@@H](OC(F)F)CC5)ncc34)nc2n1CC(F)F [Compound 1113, N-(cis-4-(Difluoromethoxy)cyclohexyl)-5-(3-(2,2-difluoroethyl)-2-methyl-3H-imidazo[4,5-b]pyridin-5-yl)pyrrolo[2,1-f][1,2,4]triazin-2-amine]
3 nM	CCO[C@H]1CC[C@@H](Nc2ncc3c(-c4ccc5nc(C)n(CC(F)F)c5n4)ccn3n2)CC1 [Compound 1115, N-(cis-4-Ethoxycyclohexyl)-5-(3-(2,2-difluoroethyl)-2-methyl-3H-imidazo [4,5-b]pyridin-5-yl)pyrrolo[2,1-f][1,2,4]triazin-2-amine]
4 nM	COCCO[C@H]1CC[C@@H](Nc2ncc3c(-c4ccc5nc(C)n(CC(F)F)c5n4)ccn3n2)CC1 [Compound 1117, 5-(3-(2,2-Difluoroethyl)-2-methyl-3H-imidazo[4,5-b]pyridin-5-yl)-N-(cis-4-(2-methoxyethoxy)cyclohexyl)pyrrolo[2,1-f][1,2,4]triazin-2-amine]
5 nM	COCCO[C@H]1CC[C@H](Nc2ncc3c(-c4ccc5nc(C)n(CC(F)F)c5n4)ccn3n2)CC1 [Compound 1118, 5-(3-(2,2-Difluoroethyl)-2-methyl-3H-imidazo[4,5-b]pyridin-5-yl)-N-(trans-4-(2-methoxyethoxy)cyclohexyl)pyrrolo[2,1-f][1,2,4]triazin-2-amine]
18 nM	Cc1nc2ccc(-c3ccn4nc(N[C@H]5CC[C@@H](N6CCOCC6)CC5)ncc34)nc2n1CC(F)F [Compound 1125, 5-(3-(2,2-Difluoroethyl)-2-methyl-3H-imidazo[4,5-b]pyridin-5-yl)-N-(cis-4-morpholinocyclohexyl)pyrrolo[2,1-f][1,2,4]triazin-2-amine]
16 nM	Cc1nc2ccc(-c3ccn4nc(NC5CCN(C)CC5)ncc34)nc2n1CC(F)F [Compound 1131, 5-(3-(2,2-Difluoroethyl)-2-methyl-3H-imidazo[4,5-b]pyridin-5-yl)-N-(1-methylpiperidin-4-yl)pyrrolo[2,1-f][1,2,4]triazin-2-amine]
5 nM	Cc1nc2ccc(-c3ccn4nc(NC5CCOCC5)ncc34)nc2n1CC(F)F [Compound 1132, 5-(3-(2,2-Difluoroethyl)-2-methyl-3H-imidazo[4,5-b]pyridin-5-yl)-N-(tetrahydro-2H-pyran-4-yl)pyrrolo[2,1-f][1,2,4]triazin-2-amine]
7 nM	C[C@]1(O)CC[C@@H](Nc2ncc3c(-c4ccc5ncccc5c4)ccn3n2)CC1 [Compound 1323, (1s,4s)-1-Methyl-4-((5-(quinolin-6-yl)pyrrolo[2,1-f][1,2,4]triazin-2-yl)amino)cyclohexan-1-ol]
529 nM	FC1(F)CCC(Nc2ncc3c(-c4ccc5nccnc5c4)ccn3n2)CC1 [Compound 1392, N-(4,4-Difluorocyclohexyl)-5-(quinoxalin-6-yl)pyrrolo[2,1-f][1,2,4]triazin-2-amine]
5 nM	C[C@]1(O)CC[C@@H](Nc2ncc3c(-c4cnc5ncccc5c4)ccn3n2)CC1 [Compound 1536, (1 s,4s)-4-((5-(1,8 -Naphthyridin-3-yl)pyrrolo [2,1-f] [1,2,4]triazin-2-yl)amino)-1-methylcyclohexan-1-ol]

More lines, now with the values behind:

Structure (SMILES)	EC50
Cn1nnc2ccc(-c3ccn4nc(NCC(C)(C)F)ncc34)cc21 [Compound 1210, N-(2-Fluoro-2-methylpropyl)-5-(1-methyl-1H-benzo[d][1,2,3]triazol-6-yl) pyrrolo[2,1-f][1,2,4]triazin-2-amine]	66 nM
CC(C)(F)CNc1ncc2c(-c3ccc4ncccc4c3)ccn2n1 [Compound 1281, N-(2-Fluoro-2-methylpropyl)-5-(quinolin-6-yl)pyrrolo[2,1-f][1,2,4]triazin-2-amine]	15 nM
COCCO[C@H]1C[C@@H](Nc2ncc3c(-c4ccc5ncccc5c4)ccn3n2)C1 [Compound 1309, N-(cis-3-(2-Methoxyethoxy)cyclobutyl)-5-(quinolin-6-yl)pyrrolo[2,1-f][1,2,4]triazin-2-amine]	3 nM
O[C@H]1CC[C@@H](Nc2ncc3c(-c4ccc5ncccc5c4)ccn3n2)CC1 [Compound 1322, cis-4-((5-(Quinolin-6-yl)pyrrolo[2,1-f][1,2,4]triazin-2-yl)amino)cyclohexan-1-ol]	393 nM
CN(C)[C@H]1CC[C@@H](Nc2ncc3c(-c4ccc5ncccc5c4)ccn3n2)CC1 [Compound 1336, cis-N^1,N^1-Dimethyl-N^4-(5-(quinolin-6-yl)pyrrolo[2,1-f][1,2,4]triazin-2-yl) cyclohexane-1,4-diamine]	25 nM
CN1CC2(CC(Nc3ncc4c(-c5ccc6ncccc6c5)ccn4n3)C2)C1 [Compound 1348, N-(2-Methyl-2-azaspiro[3.3]heptan-6-yl)-5-(quinolin-6-yl)pyrrolo[2,1-f] [1,2,4]triazin-2-amine]	5 nM
CC(C)(F)CNc1ncc2c(-c3ccc4nccnc4c3)ccn2n1 [Compound 1352, N-(2-Fluoro-2-methylpropyl)-5-(quinoxalin-6-yl)pyrrolo[2,1-f][1,2,4]triazin-2-amine]	27 nM
CO[C@H]1C[C@@H](Nc2ncc3c(-c4ccc5nccnc5c4)ccn3n2)C1 [Compound 1375, N-(cis-3-Methoxycyclobutyl)-5-(quinoxalin-6-yl)pyrrolo[2,1-f][1,2,4]triazin-2-amine]	6 nM
CO[C@H]1C[C@H](Nc2ncc3c(-c4ccc5nccnc5c4)ccn3n2)C1 [Compound 1376, N-(trans-3-Methoxycyclobutyl)-5-(quinoxalin-6-yl)pyrrolo[2,1-f][1,2,4] triazin-2-amine]	14 nM
COC[C@H]1C[C@H](Nc2ncc3c(-c4ccc5nccnc5c4)ccn3n2)C1 [Compound 1377, N-(trans-3-(Methoxymethyl)cyclobutyl)-5-(quinoxalin-6-yl)pyrrolo[2,1-f] [1,2,4]triazin-2-amine]	8 nM
COc1ncnc2ccc(-c3ccn4nc(NCC(C)(C)F)ncc34)cc12 [Compound 1423, N-(2-Fluoro-2-methylpropyl)-5-(4-methoxyquinazolin-6-yl)pyrrolo[2,1-f] [1,2,4]triazin-2-amine]	149 nM
CCO[C@H]1C[C@@H](Nc2ncc3c(-c4cnc5ncccc5c4)ccn3n2)C1 [Compound 1520, N-(cis-3-Ethoxycyclobutyl)-5-(1,8-naphthyridin-3-yl)pyrrolo[2,1-f][1,2,4] triazin-2-amine]	963 nM
COCCO[C@H]1C[C@@H](Nc2ncc3c(-c4cnc5ncccc5c4)ccn3n2)C1 [Compound 1522, N-(cis-3-(2-Methoxyethoxy)cyclobutyl)-5-(1,8-naphthyridin-3-yl)pyrrolo [2,1-f][1,2,4]triazin-2-amine]	3 nM
O[C@H]1CC[C@@H](Nc2ncc3c(-c4cnc5ncccc5c4)ccn3n2)CC1 [Compound 1535, cis-4-((5-(1.8-Naphthyridin-3-yl)pyrrolo[2,1-f][1,2,4]triazin-2-yl)amino) cyclohexan-1-ol]	7 nM
CO[C@H]1CC[C@@H](Nc2ncc3c(-c4cnc5ncccc5c4)ccn3n2)CC1 [Compound 1537, N-(cis-4-Methoxycyclohexyl)-5-(1,8-naphthyridin-3-yl)pyrrolo[2,1-f] [1,2,4]triazin-2-amine]	3 nM
CCO[C@H]1CC[C@@H](Nc2ncc3c(-c4cnc5ncccc5c4)ccn3n2)CC1 [Compound 1541]	3 nM
COCCO[C@H]1CC[C@@H](Nc2ncc3c(-c4cnc5ncccc5c4)ccn3n2)CC1 [Compound 1543, N-(cis-4-(2-Methoxyethoxy)cyclohexyl)-5-(1,8-naphthyridin-3-yl)pyrrolo [2,1-f][1,2,4]triazin-2-amine]	2 nM
COCCO[C@H]1CC[C@H](Nc2ncc3c(-c4cnc5ncccc5c4)ccn3n2)CC1 [Compound 1544, N-(trans-4-(2-Methoxyethoxy)cyclohexyl)-5-(1,8-naphthyridin-3-yl)pyrrolo [2,1-f][1,2,4]triazin-2-amine]	5 nM
c1cnc2ncc(-c3ccn4nc(N[C@H]5CC[C@@H](N6CCOCC6)CC5)ncc34)cc2c1 [Compound 1551, N-(cis-4-Morpholinocyclohcxy1)-5-(1,8-naphthyridin-3-yl)pyrrolo[2,1-f] [1,2,4]triazin-2-amine]	38 nM
CN1CCC(Nc2ncc3c(-c4cnc5ncccc5c4)ccn3n2)CC1 [Compound 1557, N-(1 -Methylpiperidin-4-yl)-5-(1,8-naphthyridin-3-yl)pyrrolo [2,1-f] [1,2,4] triazin-2-amine]	18 nM
